Test results reported in BindingDB's records for doi:10.1111/cbdd.12342 (Zhejiang University, 2014).

Target: T1, Proteasome subunit beta type-5 (Homo sapiens, UniProt P28074)
T1 sequence (P28074 whole entry): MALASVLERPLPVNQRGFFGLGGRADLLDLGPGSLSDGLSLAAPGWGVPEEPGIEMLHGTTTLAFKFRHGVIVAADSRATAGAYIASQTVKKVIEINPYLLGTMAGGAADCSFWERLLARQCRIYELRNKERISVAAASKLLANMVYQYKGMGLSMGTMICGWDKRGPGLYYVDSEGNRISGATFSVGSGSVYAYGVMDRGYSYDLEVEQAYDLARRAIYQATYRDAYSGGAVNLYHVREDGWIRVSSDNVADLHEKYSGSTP
Assay: 20S proteasome chymotrypsin-like inhibition assay

`CC(C)C[C@H](NC(=O)CC(NC(=O)c1ccc(F)cc1)c1ccccc1)C(=O)N[C@@H](CC(C)C)C(=O)[C@@]1(C)CO1` (some centres undefined) [4-Fluoro-N-{3-{S-4-methyl-1-[S-4-methyl-1-(R-2-methyloxiran-2-yl)-1-oxopentan-2-ylamino]-1-oxopentan-2-ylamino}-3-oxo-1-phenylpropyl} benzamide (21d)] was tested, and the IC50 was 0.97 µM.
`COc1ccc(C(=O)NC(CC(=O)N[C@@H](CC(C)C)C(=O)N[C@@H](CC(C)C)C(=O)[C@@]2(C)CO2)c2ccccc2)cc1` (some centres undefined) [4-Methoxy-N-{3-{S-4-methyl-1-[S-4-methyl-1-(R-2-methyloxiran-2-yl)-1-oxopentan-2-ylamino]-1-oxopentan-2-ylamino}-3-oxo-1-phenylpropyl} benzamide (21e)] was tested, and the IC50 was 1.01 µM.
`CC(C)C[C@H](NC(=O)CC(NC(=O)c1ccccc1)c1ccccc1)C(=O)N[C@@H](CC(C)C)C(=O)[C@@]1(C)CO1` (some centres undefined) [N-{3-{S-4-Methyl-1-[S-4-methyl-1-(R-2-methyloxiran-2-yl)-1-oxopentan-2-ylamino]-1-oxopentan-2-ylamino}-3-oxo-1-phenylpropyl} benzamide (21c)] was tested, and the IC50 was 1.42 µM.
`CC(C)C[C@H](NC(=O)CC(NC(=O)c1cccnc1)c1ccccc1)C(=O)N[C@@H](CC(C)C)C(=O)[C@@]1(C)CO1` (some centres undefined) [N-{3-{S-4-Methyl-1-[S-4-methyl-1-(R-2-methyloxiran-2-yl)-1-oxopentan-2-ylamino]-1-oxopentan-2-ylamino}-3-oxo-1-phenylpropyl} nicotinamide (21b)] was tested, and the IC50 was 1.85 µM.
